Measured values taken from US20050209169A1, “Use of boswellic acid and its derivatives for inhibiting normal and increased leucocytic elastase or plasmin activity” (Hermann P.T. Ammon, priority 1995, published 2005).

Legend:
[1] = biological target: T1, human leucocytic elastase (Homo sapiens, UniProt P08246); assay: Human leucocytic elastase activity in vitro, photometric, MeO-Suc-Ala-Ala-Pro-Val-p-nitroanilide substrate; format: biochemical; settings: for inhibitory effect on human leucocytic elastase: concentration of 20 μM each in the test, reference substances; for remaining activity at 20 µM: 20 μM test compound, percentage of 100% controls, read-out: residual activity of human leucocytic elastase
T1 construct: purchased Calbiochem
T1 sequence (P08246 30-267): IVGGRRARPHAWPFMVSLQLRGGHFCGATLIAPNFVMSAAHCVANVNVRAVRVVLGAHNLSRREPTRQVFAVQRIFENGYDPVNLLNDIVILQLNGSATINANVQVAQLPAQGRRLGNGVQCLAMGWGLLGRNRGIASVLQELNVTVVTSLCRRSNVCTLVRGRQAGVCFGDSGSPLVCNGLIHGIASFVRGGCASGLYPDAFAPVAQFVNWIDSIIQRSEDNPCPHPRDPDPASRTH
Excerpt: The effects which differing concentrations of acetyl-11-keto-β-boswellic acid (AKBA) had on the human leucocytic elastase in these three series of measurement are shown as percentage of 100% controls as mean values±S.D. of three independent measurements each.

human plasmin = biological target: T2, human plasmin (Homo sapiens, UniProt P00747); assay: Plasmin activity in vitro, photometric, substrate D-Ile-Phe-Lys-pNA; format: biochemical; settings: for IC50: human plasmin in vitro, FIG. 2, read-out: half-maximum inhibition constants (IC50) of plasmin activity; for inhibition of plasmin activity, summary in words: in vitro test system, concentrations reachable in human blood after oral olibanum or frankincense extracts
T2 construct: purchased SIGMA
T2 sequence (P00747 581-810 limits assumed): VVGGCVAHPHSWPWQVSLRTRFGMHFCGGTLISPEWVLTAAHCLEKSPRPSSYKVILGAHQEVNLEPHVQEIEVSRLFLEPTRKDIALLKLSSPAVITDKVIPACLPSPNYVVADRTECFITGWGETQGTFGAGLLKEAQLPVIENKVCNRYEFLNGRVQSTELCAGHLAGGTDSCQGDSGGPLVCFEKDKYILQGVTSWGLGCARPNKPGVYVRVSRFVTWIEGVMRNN
T2 sequence (P00747 97-580 partner limits assumed): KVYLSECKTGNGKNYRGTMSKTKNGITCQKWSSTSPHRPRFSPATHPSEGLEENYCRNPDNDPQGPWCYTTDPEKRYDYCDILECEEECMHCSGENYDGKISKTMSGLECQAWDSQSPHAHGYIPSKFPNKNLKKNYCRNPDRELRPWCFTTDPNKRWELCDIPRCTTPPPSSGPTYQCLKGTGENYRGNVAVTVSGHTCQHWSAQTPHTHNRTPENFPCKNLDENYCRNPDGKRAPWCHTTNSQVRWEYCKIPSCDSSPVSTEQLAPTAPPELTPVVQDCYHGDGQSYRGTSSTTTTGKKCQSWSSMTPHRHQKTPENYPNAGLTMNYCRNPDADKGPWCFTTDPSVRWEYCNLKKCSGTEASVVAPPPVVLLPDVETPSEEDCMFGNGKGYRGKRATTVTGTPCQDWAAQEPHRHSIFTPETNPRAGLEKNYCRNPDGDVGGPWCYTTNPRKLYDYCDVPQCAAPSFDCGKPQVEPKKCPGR
Protocol: The activity of human plasmin (SIGMA) was determined photometrically in vitro with the substrate D-Ile-Phe-Lys-pNA (Cs-Szabo et al., Thrombosis Res. 1980, 20: 199-206). The plasmin activity is referred to as the release of p-nitronaniline per minute (nmole/min) from the substrate as mean values±S.D. of n=3 measurements each.

chymotrypsin = chymotrypsin (Bos taurus, UniProt P00766); assay: Chymotrypsin activity in vitro, photometric, MeO-Suc-Ala-Ala-Pro-Phe-p-nitroanilide substrate
human leucoytic elastase = biological target: T3, human leucoytic elastase (Homo sapiens, UniProt P08246); settings: literature, Ying et al. 1991, Biochem. J. 277: 521-526; read-out: Ki values, inhibition of human leucocytic elastase; cited from earlier work
T3 sequence (P08246 30-267): T1 sequence (P08246 30-267)

CC(Cc1ccc(O)c(O)c1)C(C)Cc1ccc(O)c(O)c1 (stereo not drawn) [NDGA]
inhibitory effect on human leucocytic elastase [1]: no inhibitory effect

C[C@]12CCC(=O)C=C1CC[C@@H]1[C@@H]2[C@@H](O)C[C@@]2(C)[C@H]1CC[C@]2(O)C(=O)CO [cortisol]
inhibitory effect on human leucocytic elastase [1]: no inhibitory effect

CC(C)c1ccc2c(c1)c(SC(C)(C)C)c(CC(C)(C)C(=O)O)n2Cc1ccc(Cl)cc1 [MK886]
inhibitory effect on human leucocytic elastase [1]: no inhibitory effect

C[C@]12CC[C@H]3[C@@H](CCC4=CC(=O)CC[C@@]43C)[C@@H]1CC[C@@H]2O [testosterone]
inhibitory effect on human leucocytic elastase [1]: no inhibitory effect

CCCCC/C=C\C/C=C\C/C=C\C/C=C\CCCC(=O)O [arachidonic acid]
inhibitory effect on human leucocytic elastase [1]: no inhibitory effect

CC(=O)OC1CCC2(C)C(CCC3(C)C2C(=O)C=C2C4C(C)C(C)CCC4(C)CCC23C)C1(C)C(=O)O (stereo not drawn) [AKBA, acetyl-11-keto-β-boswellic acid]
remaining activity at 20 µM [1]: 18% | IC50 ([1]; substrate concentrations of 50, 100 and 150 μM, 10% DMSO, room temperature, read-out: IC50 values, inhibition of human leucocytic elastase): ~17 µM | IC50 (human plasmin): 4 to 6 µM | inhibition of plasmin activity, summary in words (human plasmin): inhibited almost completely | chymotrypsin activity, of the control activity (chymotrypsin; 50 μM test compound): 89% | chymotrypsin activity, of the control activity (chymotrypsin; 100 μM test compound): 85%

amyrin
influence on plasmin activity (human plasmin; concentrations up to 50 μM (not shown)): does not influence significantly | inhibition of plasmin activity, summary in words (human plasmin): not effective at all

CC1(C)[C@@H](O)CC[C@]2(C)[C@H]3C(=O)C=C4[C@@H]5C[C@@](C)(C(=O)O)CC[C@]5(C)CC[C@@]4(C)[C@]3(C)CC[C@@H]12 [glycerrhitinic acid]
inhibitory effect on human leucocytic elastase [1]: no inhibitory effect

C[C@H]1[C@H](C)CC[C@]2(C(=O)O)CC[C@]3(C)C(=CC[C@@H]4[C@@]5(C)CC[C@H](O)C(C)(C)[C@@H]5CC[C@]43C)[C@H]12 [ursolic acid]
remaining activity at 20 µM [1]: 11% | IC50 (human plasmin): ~15 µM | inhibition of plasmin activity, summary in words (human plasmin): substantially weaker | Ki (human leucoytic elastase): 4 to 6 µM | chymotrypsin activity, of the control activity (chymotrypsin; 50 μM test compound): 56% | chymotrypsin activity, of the control activity (chymotrypsin; 100 μM test compound): 30%

C[C@H]1[C@H](C)CC[C@]2(C)CC[C@]3(C)C(=CC[C@@H]4[C@@]5(C)CC[C@@H](O)[C@](C)(C(=O)O)[C@@H]5CC[C@]43C)[C@H]12 [β-BA, β-boswellic acid]
inhibition of plasmin activity, summary in words (human plasmin): inhibited almost completely
